Experiments:
[1] = Measurement of turbidity in BSA (absorbance at 600 nm); format: physicochemical; settings: 1% BSA, peptide 50 μM
Procedure: The solutions were evaluated for their absorbance at a wavelength of 600 nm by using a spectrophotometer (DU640, manufactured by Beckman).

[2] = Measurement of CD spectrum with and without SDS; format: physicochemical; settings: 10 mM phosphate buffer pH 7, 50 mM NaCl, 35° C.
Procedure: The peptide dissolved in 10 mM phosphate buffer (pH=7) containing 50 mM NaCl was evaluated for its CD spectrum in the presence and in the absence of 5 mM SDS by using a circular dichroism spectrophotometer (J-500A, manufactured by JASCO). The cell length was 1 mm. The measurement was conducted at 35° C. for 6 times in total.

[3] = tested on: Vero cell, T24 cell, A549 cell; assay: Nucleic acid-introducing ability, luciferase-expressing plasmid (procedure of Example 9); format: cell-based
Excerpt: A cell line established from monkey kidney (Vero cell) and a human bladder cancer cell (T24 cell) purchased from American Type Culture Collection (ATCC) and human lung cancer cell (A549 cell) purchased from Dainippon Pharmaceutical were inoculated on a 24 well culture plate (manufactured by NALGEN NUNC) at 1×10^5 cells/well. Vero cell and A549 cell were cultivated in DMEM (manufactured by Life Technologies Oriental) supplemented with 10% fetal bovine serum (hereinafter referred to as FBS, manufactured by NICHIREI), and T24 cell was cultivated in McCoy's 5a (manufactured by Life Technologies Oriental) supplemented with 10% FBS in 5% CO2 atmosphere at 37° C. for 24 hours. After removing the medium, opti-MEM (manufactured by Life Technologies Oriental) prepared to have the concentration of the luciferase-expressing plasmid prepared in Example 7 of 1 μg/mL and the concentration of the peptide prepared in Example 1 of 1.25, 2.5, or 5 μM was added, and the cells were cultivated for 5 hours. Next, in the case of Vero cell and A549 cell, the culture medium was replaced with DMEM supplemented with 10% FBS, and in the case of T24 cell, the medium was replaced with McCoy's 5a supplemented with 10% FBS, and cultivation was continued in 5% CO2 atmosphere and at 37° C. for another 24 hours. The luciferase activity expressed in the cell was then measured by the method instructed in luciferase assay system (manufactured by Promega). To be more specific, the cells were washed with phosphate-buffered saline (hereinafter referred to as PBS, manufactured by SIGMA), and the cells were lyzed with Passive Lysis Buffer attached to the kit.
(§1) 20 μL of this cell lysate and 100 μL of the Luciferase Assay Reagent II attached to the kit was added to a fluorescence-measuring plate (Microlite™ 1 plate, manufactured by Dynatech), and after mixing, fluorescence was measured for 1 second by using a multilabel counter (ARVO™ SY1420 MULTILABEL COUNTER, manufactured by Wallac Beltold.
Concentration of the protein in the cell lysate was measured by mixing 8 μL of the cell lysate and 200 μL of the protein assay solution (manufactured by Biorad) with 792 μL of ultrapure water in a disposable cuvette (UV fluorescent cuvette A204X, manufactured by Funakoshi), allowing the mixture to stand for 5 minutes at room temperature, and measuring the absorption at 595 nm with a spectrophotometer (DU640, manufactured by Beckman). Bovine serum albumin (BSA) was used for the standard protein. By using the thus obtained results, count per 1 second per 1 mg of protein of the cell lysate was calculated to thereby use the count as the luciferase activity, and the highest count in the three conditions of different peptide concentration was designated the gene-introducing ability of the peptide.

Vero cell [4] = assay: Accumulation of FITC-labeled oligonucleotide in cell nucleus; format: cell-based, monkey; settings: 300 nM FITC-labeled oligonucleotide, 2.5 μM peptide
Procedure: Vero cell was inoculated in the well of a chamber slide (Lab-Tek II chamber slide, size 4 well, manufactured by NALGEN NUNC) at a rate of 1×10^5 cells/well, and the cells were cultivated in DMEM supplemented with 10% FBS in 5% CO2 atmosphere at 37° C. for 24 hours. After removing the medium, opti-MEM containing 300 nM FITC-labeled oligonucleotide prepared in Example 6 and 2.5 μM of the peptide of SEQ ID NO: 1 prepared in Example 1 was added, and the cultivation was continued for 4 hours. The medium was replaced with DMEM supplemented with 10% FBS, and the cultivation was continued in 5% CO2 atmosphere at 37° C. for another 24 hours. After washing the cell with PBS, the cells were fixed by using PBS containing 4% paraformaldehyde, and accumulation of FITC-labeled oligonucleotide in the cell nucleus was confirmed by using a fluorescence microscope (AH-3, manufactured by Olympus). […] On the other hand, accumulation of FITC-labeled oligonucleotide in the cell was not confirmed in the absence of the peptide of SEQ ID NO: 1.

Vero cell [5] = assay: Luciferase-expressing plasmid introduction into Vero cell; format: cell-based, monkey
Excerpt: (§2) A cell line established from monkey kidney (Vero cell) and a human bladder cancer cell (T24 cell) purchased from American Type Culture Collection (ATCC) and human lung cancer cell (A549 cell) purchased from Dainippon Pharmaceutical were inoculated on a 24 well culture plate (manufactured by NALGEN NUNC) at 1×10^5 cells/well. Vero cell and A549 cell were cultivated in DMEM (manufactured by Life Technologies Oriental) supplemented with 10% fetal bovine serum (hereinafter referred to as FBS, manufactured by NICHIREI), and T24 cell was cultivated in McCoy's 5a (manufactured by Life Technologies Oriental) supplemented with 10% FBS in 5% CO2 atmosphere at 37° C. for 24 hours. […] The luciferase activity expressed in the cell was then measured by the method instructed in luciferase assay system (manufactured by Promega). […]
as §1, with “Beltold. […]” for “Beltold.”

A549 cell = assay: Luciferase-expressing plasmid introduction into A549 cell; format: cell-based, human
Excerpt: as §2
as §1, with “Beltold. […]” for “Beltold.”

## TRYLRIHPRSWVHQIALRLRYLRIHPRSWVHQIALRS [SEQ ID NO: 1]
[1]
  OD 600: 0.03
[2]; 5 mM SDS
  α-helix structure in CD spectroscopy in the presence of SDS: are in α-helix structure in the presence of SDS
[2]; no SDS
  α-helix structure in CD spectroscopy in the absence of SDS: do not take α-helix structure in an aqueous solution solely containing an inorganic salt
[3]; luciferase plasmid 1 μg/mL, highest count of peptide 1.25, 2.5 or 5 μM, cell line not stated
  Nucleic acid-introducing ability: 3+ (1,000,000 to less than 10,000,000)
[3]; procedure of Example 9
  Ability of introducing the nucleic acid into a cell: found to have the ability of introducing the nucleic acid into a cell
Vero cell [4]
  Accumulation of FITC-labeled oligonucleotide in the cell nucleus: FITC-labeled oligonucleotide was accumulated in the cell nucleus
Vero cell [5]
  Luciferase activity: 2.5 × 10^6 cps/mg protein
A549 cell
  Luciferase activity: 8.7 × 10^4 cps/mg protein

Source: patent publication US20050277586A1, “Peptide chemically modified with polyethylene glycol” (priority 2002, published 2005)
